Test results taken from US11053204B2, “Pyrimidinyloxy benzene derivatives as herbicides” (FMC Corporation, priority 2015, dated 2021).

Tests used:
Format in all cases: in vivo
[1] = test system: Italian ryegrass (Lolium multiflorum); assay: Test A preemergence, visual injury rating
How it was run: (§1)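 Greenhouse pot test, loam/sand soil. Formulation: non-phytotoxic solvent mix plus surfactant. Pre: directed spray onto soil after sowing. Post: plants at 1–2 leaf, 2–10 cm. Rated visually vs untreated controls at ~10 d, 0 (no effect) to 100 (complete control).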

[2] = test system: barnyardgrass (Echinochloa crus-galli); assay: Test A preemergence, visual injury rating
How it was run: as §1

[3] = test system: giant foxtail (Setaria faberii); assay: Test A preemergence, visual injury rating
How it was run: as §1

kochia (Kochia scoparia) [4] = assay: Test A preemergence, visual injury rating
How it was run: as §1

[5] = test system: pigweed (Amaranthus retroflexus); assay: Test A preemergence, visual injury rating
How it was run: as §1

[6] = test system: ragweed (common ragweed, Ambrosia elatior); assay: Test A preemergence, visual injury rating
How it was run: as §1

[7] = test system: chickweed (common chickweed, Stellaria media); assay: Test C postemergence, plant response rating; conditions: for Chickweed plant response rating: scale 0 to 100 (0 no effect, 100 complete control)
How it was run: (§2)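 Pre-emergence: seeds sown in loam soil–sand blend or silt loam and sprayed with test chemicals in a non-phytotoxic solvent mixture with surfactant. Post-emergence: plants 2 to 18 cm (1- to 4-leaf stage) in peat-based potting medium, same formulation. Greenhouse 13 to 15 d; visual rating 0 (no effect) to 100 (complete control) versus controls.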

corn (Zea mays) = assay: Test C postemergence, plant response rating; conditions: for Corn plant response rating: scale 0 to 100 (0 no effect, 100 complete control)
How it was run: as §2

[8] = test system: crabgrass, large (large crabgrass, Digitaria sanguinalis); assay: Test C postemergence, plant response rating; conditions: for Crabgrass, Large plant response rating: scale 0 to 100 (0 no effect, 100 complete control)
How it was run: as §2

[9] = test system: galium (catchweed bedstraw, Galium aparine); assay: Test C postemergence, plant response rating; conditions: for Galium plant response rating: scale 0 to 100 (0 no effect, 100 complete control)
How it was run: as §2

kochia (Kochia scoparia) [10] = assay: Test C postemergence, plant response rating; conditions: for Kochia plant response rating: scale 0 to 100 (0 no effect, 100 complete control)
How it was run: as §2

[11] = test system: lambsquarters (Chenopodium album); assay: Test C postemergence, plant response rating; conditions: for Lambsquarters plant response rating: scale 0 to 100 (0 no effect, 100 complete control)
How it was run: as §2

[12] = test system: nutsedge, yellow (yellow nutsedge, Cyperus esculentus); assay: Test C postemergence, plant response rating; conditions: for Nutsedge, Yellow plant response rating: scale 0 to 100 (0 no effect, 100 complete control)
How it was run: as §2

[13] = test system: oat, wild (wild oat Avena fatua); assay: Test C postemergence, plant response rating; conditions: for Oat, Wild plant response rating: scale 0 to 100 (0 no effect, 100 complete control)
How it was run: as §2

[14] = test system: ragweed (common ragweed, Ambrosia elatior); assay: Test C postemergence, plant response rating; conditions: for Ragweed plant response rating: scale 0 to 100 (0 no effect, 100 complete control)
How it was run: as §2

[15] = test system: ryegrass, Italian (Italian ryegrass, Lolium multiflorum); assay: Test C postemergence, plant response rating; conditions: for Ryegrass, Italian plant response rating: scale 0 to 100 (0 no effect, 100 complete control)
How it was run: as §2

soybean (Glycine max) = assay: Test C postemergence, plant response rating; conditions: for Soybean plant response rating: scale 0 to 100 (0 no effect, 100 complete control)
How it was run: as §2

[16] = test system: waterhemp (common waterhemp, Amaranthus rudis); assay: Test C postemergence, plant response rating
How it was run: as §2

[17] = 31 g ai/ha, 0 to 100 scale, 0 no effect, 100 complete control
[18] = 125 g ai/ha, 0 to 100 scale (0 no effect, 100 complete control)

## FC(F)(F)CCCc1c(Br)cccc1Oc1ncc(Cl)cn1 [Compound 89]
[1]; [17]
  Plant response rating, Ryegrass, Italian: 0
[1]; [18]
  Ryegrass, Italian plant response rating: 20
[2]; [17]
  Plant response rating, Barnyardgrass: 20
[2]; [18]
  Barnyardgrass plant response rating: 90
[3]; [17]
  Plant response rating, Foxtail, Giant: 10
[3]; [18]
  Foxtail, Giant plant response rating: 50
Kochia (Kochia scoparia) [4]; [17]
  Plant response rating, Kochia: 10
Kochia (Kochia scoparia) [4]; [18]
  Kochia plant response rating: 50
[5]; [17]
  Plant response rating, Pigweed: 10
[5]; [18]
  Pigweed plant response rating: 100
[6]; [17]
  Plant response rating, Ragweed: 0
[6]; [18]
  Ragweed plant response rating: 0
[7]; 16 g ai/ha, scale of 0 to 100
  Plant response rating, Chickweed: 65
[7]; 31 g ai/ha, scale 0 to 100
  Plant response rating, Chickweed: 95
[7]; 62 g ai/ha
  Chickweed plant response rating: 85
[7]; 125 g ai/ha
  Chickweed plant response rating: 100
Corn (Zea mays); 16 g ai/ha, scale of 0 to 100
  Plant response rating, Corn: 15
Corn (Zea mays); 31 g ai/ha, scale 0 to 100
  Plant response rating, Corn: 15
Corn (Zea mays); 62 g ai/ha
  Corn plant response rating: 15
Corn (Zea mays); 125 g ai/ha
  Corn plant response rating: 20
[8]; 16 g ai/ha, scale of 0 to 100
  Plant response rating, Crabgrass, Large: 55
[8]; 31 g ai/ha, scale 0 to 100
  Plant response rating, Crabgrass, Large: 60
[8]; 62 g ai/ha
  Crabgrass, Large plant response rating: 85
[8]; 125 g ai/ha
  Crabgrass, Large plant response rating: 90
[9]; 16 g ai/ha, scale of 0 to 100
  Plant response rating, Galium: 75
[9]; 31 g ai/ha, scale 0 to 100
  Plant response rating, Galium: 75
[9]; 62 g ai/ha
  Galium plant response rating: 80
[9]; 125 g ai/ha
  Galium plant response rating: 90
Kochia (Kochia scoparia) [10]; 16 g ai/ha, scale of 0 to 100
  Plant response rating, Kochia: 70
Kochia (Kochia scoparia) [10]; 31 g ai/ha, scale 0 to 100
  Plant response rating, Kochia: 75
Kochia (Kochia scoparia) [10]; 62 g ai/ha
  Kochia plant response rating: 80
Kochia (Kochia scoparia) [10]; 125 g ai/ha
  Kochia plant response rating: 95
[11]; 16 g ai/ha, scale of 0 to 100
  Plant response rating, Lambsquarters: 70
[11]; 31 g ai/ha, scale 0 to 100
  Plant response rating, Lambsquarters: 75
[11]; 62 g ai/ha
  Lambsquarters plant response rating: 100
[11]; 125 g ai/ha
  Lambsquarters plant response rating: 100
[12]; 16 g ai/ha, scale of 0 to 100
  Plant response rating, Nutsedge, Yellow: 0
[12]; 31 g ai/ha, scale 0 to 100
  Plant response rating, Nutsedge, Yellow: 0
[12]; 62 g ai/ha
  Nutsedge, Yellow plant response rating: 0
[12]; 125 g ai/ha
  Nutsedge, Yellow plant response rating: 5
[13]; 16 g ai/ha, scale of 0 to 100
  Plant response rating, Oat, Wild: 15
[13]; 31 g ai/ha, scale 0 to 100
  Plant response rating, Oat, Wild: 10
[13]; 62 g ai/ha
  Oat, Wild plant response rating: 40
[13]; 125 g ai/ha
  Oat, Wild plant response rating: 30
[14]; 16 g ai/ha, scale of 0 to 100
  Plant response rating, Ragweed: 0
[14]; 31 g ai/ha, scale 0 to 100
  Plant response rating, Ragweed: 5
[14]; 62 g ai/ha
  Ragweed plant response rating: 10
[14]; 125 g ai/ha
  Ragweed plant response rating: 25
[15]; 16 g ai/ha, scale of 0 to 100
  Plant response rating, Ryegrass, Italian: 5
[15]; 31 g ai/ha, scale 0 to 100
  Plant response rating, Ryegrass, Italian: 5
[15]; 62 g ai/ha
  Ryegrass, Italian plant response rating: 5
[15]; 125 g ai/ha
  Ryegrass, Italian plant response rating: 10
Soybean (Glycine max); 16 g ai/ha, scale of 0 to 100
  Plant response rating, Soybean: 35
Soybean (Glycine max); 31 g ai/ha, scale 0 to 100
  Plant response rating, Soybean: 40
Soybean (Glycine max); 62 g ai/ha
  Soybean plant response rating: 65
Soybean (Glycine max); 125 g ai/ha
  Soybean plant response rating: 70
[16]; 16 g ai/ha, scale of 0 to 100
  Plant response rating, Waterhemp: 70
[16]; 31 g ai/ha, scale 0 to 100
  Plant response rating, Waterhemp: 70
[16]; 125 g ai/ha, scale 0 to 100 (0 no effect, 100 complete control)
  Waterhemp plant response rating: 95
